Reference: US12479858B2, “Macrocyclic compounds as sting agonists and methods and uses thereof” (Lupin Limited, priority 2019, dated 2025)
pEC50: −log10 of the molar value. Structures can show the parent of a compound that is named as a salt. Where two headings read alike, the source gives them in different places.

Legend:
[1] = snar bond, 15-membered ring, (E)-but-2-ene-1,4-diamine 2HCl/DIPEA
[2] = the molecule shown is the open-chain precursor; snar bond; 15-membered ring; (E)-but-2-ene-1,4-diamine 2HCl/DIPEA; EtOH/THF 3:1; 46.0 mM; 105.0 °C
[3] = Apparent solubility/extended kinetic solubility by UHPLC; assay type: physicochemical; details: aqueous buffer, thermodynamic from solid, phosphate buffer, 37° C.
Protocol: Biological Assay—Determination of Apparent Solubility/Extended Kinetic Solubility by UHPLC
Test sample preparation: About 0.5 mg of the test sample was weighed and transferred in duplicate in 1 mL glass inserts of 96 well plates. 5 μL of DMSO and 1 ml of phosphate buffer were added. Allowed for equilibrium in an orbital shaker at 37° C. for 24 hrs. Later, allowed it cool to room temperature and centrifuged the 96 well plate (at 240×10 RPM for 20 min) and supernatant material was taken into collection plate, covered it with the heat resistant aluminum sheet or supernatant material was directly taken into HPLC sample vial.
Injected diluent as blank and linearity solutions in duplicate. Recorded the chromatograms and plotted the calibration curve, concentration (X-axis) versus Area (y-axis). The correlation coefficient for calibration curve should be not less than 0.95. If above criteria passes, then injected the test samples and recorded the chromatograms. In case saturated peaks are observed, then diluted the test sample with diluent as appropriate.
Calculated the slope and intercept of the calibration curve. From the standard curve, determined the solubility of the sample in μM (micromolar).

[4] = molecular target: T1, Human STING (Homo sapiens, UniProt Q86WV6, G230A/H232R/R293Q/R71H); experiment: Stimulation of human STING signaling in THP1 cell line (THP1-Blue ISG SEAP reporter); assay type: cell-based; details: THP1-Blue ISG cells, SEAP activity, 18-20 hours
T1 construct: using human THP1-Blue™ ISG SEAP based reporter cell line (Invivogen); host or cells: THP1-Blue ISG cells (human monocytic THP-1 derived SEAP reporter line)
Protocol: Biological Assay—Stimulation of Human STING Signaling in THP1 Cell Line
Compounds were tested for their STING activation potential using human THP1-Blue™ ISG SEAP based reporter cell line (Invivogen). Briefly, THP1-Blue ISG cells (100,000 cells/well) in 96 well plate were treated with varying concentrations of test and reference compounds and incubated at 37° C. with 5% CO2 for 18-20 hours. The control untreated cells were also set up. Post incubation, the cell supernatant was tested for SEAP (Secreted Embryonic Alkaline Phosphatase) activity using the QuantiBlue™ substrate reagent (Invivogen). The formation of blue coloured product was quantified by measuring absorbance at wavelength of 620 nm using PheraStar/Tecan reader. The average of duplicate readouts for each data point was plotted in GraphPad prism 6 against the concentration of test or reference compound to calculate EC50 value. The fold of SEAP induction or increase in luminescence at different data points was estimated against the un-stimulated cell control set.

T1 sequence (Q86WV6 whole entry R71H/G230A/H232R/R293Q): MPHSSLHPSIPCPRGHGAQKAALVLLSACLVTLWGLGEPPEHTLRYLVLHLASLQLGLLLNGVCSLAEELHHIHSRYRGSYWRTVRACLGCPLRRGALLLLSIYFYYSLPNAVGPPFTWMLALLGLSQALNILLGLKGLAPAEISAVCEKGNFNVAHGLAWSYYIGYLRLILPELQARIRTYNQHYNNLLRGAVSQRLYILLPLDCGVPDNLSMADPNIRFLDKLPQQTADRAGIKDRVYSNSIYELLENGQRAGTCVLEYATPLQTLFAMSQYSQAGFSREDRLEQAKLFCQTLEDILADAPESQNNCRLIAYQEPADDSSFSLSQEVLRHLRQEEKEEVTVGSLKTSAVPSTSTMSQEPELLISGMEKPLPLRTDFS

CCOC(=O)c1cc(OCC(COc2cc(C(=O)OCC)cc([N+](=O)[O-])c2Cl)N2CCOCC2)c(Cl)c([N+](=O)[O-])c1
ring closure, crude yield ([1]; the molecule shown is the open-chain precursor, EtOH/THF 7:1, 156.5 mM, 110.0 °C): 88%

CCOC(=O)c1cc(OCCCOc2cc(C(=O)OC(C)(C)C)cc([N+](=O)[O-])c2Cl)c(Cl)c([N+](=O)[O-])c1
ring closure, isolated yield [2]: 90%

CCOC(=O)c1cc(OCCCOc2cc(C(N)=O)cc([N+](=O)[O-])c2Cl)c(Cl)c([N+](=O)[O-])c1
ring closure, crude yield ([1]; the molecule shown is the open-chain precursor, EtOH/THF 3:1, 99.5 mM, 120.0 °C): 73%

CCOC(=O)c1cc(OC[C@H](COc2cc(C(=O)OC(C)(C)C)cc([N+](=O)[O-])c2Cl)N2C3CCC2COC3)c(Cl)c([N+](=O)[O-])c1
ring closure, crude yield ([1]; the molecule shown is the open-chain precursor, EtOH, 121.0 mM, 105.0 °C): 89.8%

CCn1nc(C)cc1C(=O)Nc1nc2cc(C(N)=O)cc3c2n1C/C=C/Cn1c(NC(=O)c2cc(C)nn2CC)nc2cc(C(=O)NCCCc4nnn[nH]4)cc(c21)OC[C@@H](N1C2CCC1COC2)CO3 [Compound 16, (8S,E)-N4-(3-(1H-tetrazol-5-yl)propyl)-8-(3-oxa-8-azabicyclo[3.2.1]octan-8-yl)-1,15-bis(1-ethyl-3-methyl-1H-pyrazole-5-carboxamido)-8,9,16,19-tetrahydro-7H-6,10-dioxa-2,14,15a,19a-tetraazacyclopentadeca[3,2,1-cd:8,9,10-c′d′]diindene-4,12-dicarboxamide sodium salt]
solubility at 24 h [3]: 243 µM | pEC50 [4]: 8.00 to 9.00

CCn1nc(C)cc1C(=O)Nc1nc2cc(C(N)=O)cc3c2n1C/C=C/Cn1c(NC(=O)c2cc(C)nn2CC)nc2cc(C(=O)NCCCn4cc(C(=O)O)cn4)cc(c21)OC[C@@H](N1C2CCC1COC2)CO3 [Compound 18, 1-(3-((8S,E)-8-(3-oxa-8-azabicyclo[3.2.1]octan-8-yl)-12-carbamoyl-1,15-bis(1-ethyl-3-methyl-1H-pyrazole-5-carboxamido)-8,9,16,19-tetrahydro-7H-6,10-dioxa-2,14,15a,19a-tetraazacyclopentadeca[3,2,1-cd:8,9,10-c′d′]diindene-4-carboxamido)propyl)-1H-pyrazole-4-carboxylic acid sodium salt]
solubility at 24 h [3]: 250 µM | pEC50 [4]: 8.00 to 9.00

diethyl (E)-7-(8-oxa-3-azabicyclo[3.2.1]octan-3-yl)-1,13-dinitro-7,8,14,15,18,19-hexahydro-6H-dibenzo[b,j][1,12]dioxa[4,9]diazacyclopentadecine-3,11-dicarboxylate
ring closure, crude yield ([1]; EtOH/THF 7.4:1, 148.0 mM, 110.0 °C): 88%
